Values of other authors in article PMC4357254, “Molecular cloning and characterization of the allatotropin precursor and receptor in the desert locust, Schistocerca gregaria” (Frontiers in Neuroscience, 2015).
Where no end group is shown, it is not given here.

Assays:
[1] = tested on: ATR of M. sexta; settings: ref Horodyski et al., [2011]
Source text: (§1) ATs exert effects on their cellular targets by binding to receptors with high affinity binding sites that are members of the family of rhodopsin-like G protein-coupled receptors (GPCRs). The AT receptors (ATRs) are orthologous to vertebrate orexin/hypocretin receptors. To date, five ATRs have been characterized; namely the neuropeptide 16 receptor in Bombyx mori (Yamanaka et al., [2008]), the receptors of M. sexta (Horodyski et al., [2011]), Tribolium castaneum (Vuerinckx et al., [2011]), Aedes aegypti (Nouzova et al., [2012]) and Bombus terrestris (Verlinden et al., [2013]). The first three w ...

[2] = tested on: ATR receptor of B. terrestris; settings: ref Verlinden et al., [2013]
Source text: as §1

[3] = tested on: T. castaneum receptor; settings: ref Vuerinckx et al., [2011]
Source text: as §1

[4] = tested on: neuropeptide 16 receptor in Bombyx mori; settings: ref Yamanaka et al., [2008]
Source text: as §1

[5] = tested on: corpora allata (CA); settings: in vitro; ref Kataoka et al., [1989]
Source text: Allatotropin (AT) was originally identified as an amidated tridecapeptide isolated from the nervous system of the lepidopteran Manduca sexta. […] Most ATs have a conserved C-terminal pentapeptide that consists of a TARGFa motif although the hymenopteran AT has an exceptional TAYGFa C-terminal (Veenstra et al., [2012]). There are also AT-like peptides (ATLs) that contain more variation in their C-terminal motif but t ...

In the case of “Manse-AT: amidated tridecapeptide isolated from the nervous system of the lepidopteran Manduca sexta (GFKNVEMMTARGF-NH2; UniProt P21786 37-49, looked up)”, the “activation of M. sexta ATR” value [1] is given as “dose-dependently activated”, the “activation of B. terrestris ATR” value [2] is given as “responded” and the “concentrations needed for activation of B. terrestris ATR” value ([2]; relative to other ATRs) is given as “much higher concentrations were needed”. The “activation of T. castaneum ATR” value [3] was “dose-dependently activated”, the “activation of B. mori neuropeptide 16 receptor” value [4] was “dose-dependently activated” and the “JH biosynthesis in the corpora allata” value [5] was “stimulate juvenile hormone (JH) biosynthesis”.
